# Patent US20210290680A1, “METHODS AND COMPOSITIONS FOR MODULATING CELLULAR AGING” (Dorian Therapeutics, Inc., priority 2019, published 2021)
# Assays:
# CDKN1A = test: qPCR of senescence marker CDKN1A; type: cell-based, human; conditions: for CDKN1A expression, fold change vs Control: day 15, n=4; for decrease of senescence marker CDKN1A (Ctrl vs shRNA): primary T cells, day 15
# Description: A new set of shRNAs were cloned into the pSIH backbone, where the shRNA expression is driven by the H1 promoter. The vector was also engineered to co-express GFP and Puromycin resistance through a T2A sequence. The new shRNA sequences were: shUSP16 #1 5′-[…]-3′ (SEQ ID NO: 8) and shUSP16 #2 5′-[…]-3′ (SEQ ID NO: 9). Primary T cells were activated as described (Example 3), transduced with a lentivirus encoding either a shUSP16 #1, shUSP16 #2 or a scrambled shRNA (Control) and cells were selected with puromycin at day 6. Between 1 and 1.25×10^6 cells were plated post-puromycin selection with a purity higher than 90% and counted every 2-4 days by Trypan Blue exclusion using Vi-CELL XR cell counter (Beckman Coulter). qPCR was performed to verify downregulation of USP16 expression (FIG. 14A) and the expression of the senescent marker CDKN1A (FIG. 14B) at day 15. Proliferation was measured as fold increased compared to shControl at day 15 post-activation. The experiment was repeated using primary T cells obtained from buffy coats of 3 different healthy donors.
# Primary T cells were activated as described (Example 3), transduced with a lentivirus encoding for either a CD19.CAR or a GD2.CAR co-expressing shUSP16 #1, shUSP16 #2 or a scrambled shRNA (Control). Fifteen days post-activation, T cells were collected and qPCR performed. TaqMan probes detecting CDKN1A, CDKN2A (FIGS. 26A and 26B) (fold change GD2.CAR (n=4): CDKN1A Control vs shUSP #1: 0.4360, p<0.0001, and Control vs shUSP16 #2: 3.036, p=0.004 respectively. Fold change CD19.CAR (n=4): CDKN2a, CDKN1A Control vs shUSP #1: 0.6906, p=0.0026; 0.7228, p=0.0297 and Control vs shUSP16 #2: 0.8385, p=0.2325; 0.7017, p=0.0021), TCF7, LEF1, and Axin-2 (FIGS. 27A and B) were analyzed in GD2.CAR and CD19.CAR-expressing cells, respectively. ACTB was used as internal control. (GD2.CAR (n=4) TCF7, LEF1 and Axin-2: Control vs shUSP #1: 1.914 p=0.0512; 1.795 p=0.0323; 3.269 p=0.15 and Control vs shUSP16 #2: 1.284 p=0.0494; 1.718 p=0.0586; 2.035p=0.235, respectively. Fold change CD19.CAR (n=4): TCF7, LEF1 and Axin-2: Control vs shUSP #1: 1.528, p=0.0277; 1.82, p=0.0449; 1.998, p=0.031 and Control vs shUSP16 #2: 1.18, p=0.2002; 1.579, p=0.0632; 1.261, p=0.2382). USP16 downregulation in CAR-T cells results in a decreased expression of senescence markers and an increase in the expression of genes associated with the activation/increased signaling of the WNT pathway, indicating its importance in delaying cellular senescence and increasing self-renewal.
# NALM leukemia cell line = test: In vivo anti-tumor activity of CD19.CAR T cells (circulating Gaussia luciferase); conditions: immunocompromised mice, one million CD19.CAR T cells via tail vein, n=4-6
# Description: Primary T cells were activated and prepared, as in Example 26. NALM leukemia cell line was transduced with Gaussia Luciferase and one million cells were injected via tail vein at d−4. One million of CD19.CAR T cells were then infused via tail vein at d=0 and mice were weighted, and blood was collected every week (FIG. 38). Tumor growth was monitor by weekly assessment of circulating luciferase. Briefly, blood was collected and subsequently analyzed for luciferase expression using Nanolight Technologies Luciferase detection Kit. Luciferase expression (calculated as GLuc, RLU (Relative Luminescence Unit)) in the blood correlates with tumor engraftment. As NALM cells engraft primarily in the spleen, at the time of sacrifice, the spleens were collected and photographed (FIG. 39B), the size of the spleen directly correlates to the amount of tumor infiltrated in the organ.
Substance,"CDKN1A expression, fold change vs Control (CDKN1A; CD19.CAR)","CDKN1A expression, fold change vs Control (CDKN1A; GD2.CAR)",decrease of senescence marker CDKN1A (Ctrl vs shRNA) (CDKN1A) [%],"NALM engraftment, luciferase expression in blood (GLuc) (NALM leukemia cell line) [RLU]"
"shUSP16 #1: shRNA targeting USP16, 5′-GACTGTAAGACTGACAATAAA-3′ (SEQ ID NO: 8), pSIH backbone or co-expressed in CAR plasmid",0.7228,0.4360,23,38603
"shUSP16 #2: shRNA targeting USP16, 5′-TATATCAGTTCACCCGTAAT-3′ (SEQ ID NO: 9), pSIH backbone or co-expressed in CAR plasmid",0.7017,3.036,37,5169
